Reference: patent US20180099931A1 (AbbVie S.à.r.l., priority 2016, published 2018)
Read-outs that look alike come from different tables or passages of the source.

Molecular target: T1, F508delCFTR (Homo sapiens, UniProt P13569, DEL508-508)
T1 construct: expressed in transfected cells; host or cells: CFBE41o- human lung-derived epithelial cells (CFBE4lo-F508delCFTR-HRP), doxycycline-inducible
Experiment: Cell Surface Expression-Horse Radish Peroxidase (CSE-HRP) Assay;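 for Maximum % activity (with co-corrector): co-corrector and positive control are both the same reference corrector at 2 µM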;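 for Maximum % activity (without co-corrector): percent of the 2 µM on-plate positive control corrector response above DMSO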
Type: cell-based
Conditions: CSE-HRP; for Maximum % activity (with co-corrector): with co-corrector (2 μM); for Maximum % activity (with co-corrector) / Emax: maximum at any tested concentration, normalized to on-plate positive control; for Emax: without co-corrector, read-out: Maximum % activity (without co-corrector)

[1] = test compound without co-corrector, read-out: EC50 (without co-corrector)
[2] = with co-corrector (2 μM of 3-[(2R,4R)-4-({[1-(2,2-difluoro-1,3-benzodioxol-5-yl)cyclopropyl]carbonyl}amino)-7-methoxy-3,4-dihydro-2H-chromen-2-yl]benzoic acid), read-out: EC50 (with co-corrector)

T1 sequence (P13569 with tags, fused parts or gaps DEL508-508): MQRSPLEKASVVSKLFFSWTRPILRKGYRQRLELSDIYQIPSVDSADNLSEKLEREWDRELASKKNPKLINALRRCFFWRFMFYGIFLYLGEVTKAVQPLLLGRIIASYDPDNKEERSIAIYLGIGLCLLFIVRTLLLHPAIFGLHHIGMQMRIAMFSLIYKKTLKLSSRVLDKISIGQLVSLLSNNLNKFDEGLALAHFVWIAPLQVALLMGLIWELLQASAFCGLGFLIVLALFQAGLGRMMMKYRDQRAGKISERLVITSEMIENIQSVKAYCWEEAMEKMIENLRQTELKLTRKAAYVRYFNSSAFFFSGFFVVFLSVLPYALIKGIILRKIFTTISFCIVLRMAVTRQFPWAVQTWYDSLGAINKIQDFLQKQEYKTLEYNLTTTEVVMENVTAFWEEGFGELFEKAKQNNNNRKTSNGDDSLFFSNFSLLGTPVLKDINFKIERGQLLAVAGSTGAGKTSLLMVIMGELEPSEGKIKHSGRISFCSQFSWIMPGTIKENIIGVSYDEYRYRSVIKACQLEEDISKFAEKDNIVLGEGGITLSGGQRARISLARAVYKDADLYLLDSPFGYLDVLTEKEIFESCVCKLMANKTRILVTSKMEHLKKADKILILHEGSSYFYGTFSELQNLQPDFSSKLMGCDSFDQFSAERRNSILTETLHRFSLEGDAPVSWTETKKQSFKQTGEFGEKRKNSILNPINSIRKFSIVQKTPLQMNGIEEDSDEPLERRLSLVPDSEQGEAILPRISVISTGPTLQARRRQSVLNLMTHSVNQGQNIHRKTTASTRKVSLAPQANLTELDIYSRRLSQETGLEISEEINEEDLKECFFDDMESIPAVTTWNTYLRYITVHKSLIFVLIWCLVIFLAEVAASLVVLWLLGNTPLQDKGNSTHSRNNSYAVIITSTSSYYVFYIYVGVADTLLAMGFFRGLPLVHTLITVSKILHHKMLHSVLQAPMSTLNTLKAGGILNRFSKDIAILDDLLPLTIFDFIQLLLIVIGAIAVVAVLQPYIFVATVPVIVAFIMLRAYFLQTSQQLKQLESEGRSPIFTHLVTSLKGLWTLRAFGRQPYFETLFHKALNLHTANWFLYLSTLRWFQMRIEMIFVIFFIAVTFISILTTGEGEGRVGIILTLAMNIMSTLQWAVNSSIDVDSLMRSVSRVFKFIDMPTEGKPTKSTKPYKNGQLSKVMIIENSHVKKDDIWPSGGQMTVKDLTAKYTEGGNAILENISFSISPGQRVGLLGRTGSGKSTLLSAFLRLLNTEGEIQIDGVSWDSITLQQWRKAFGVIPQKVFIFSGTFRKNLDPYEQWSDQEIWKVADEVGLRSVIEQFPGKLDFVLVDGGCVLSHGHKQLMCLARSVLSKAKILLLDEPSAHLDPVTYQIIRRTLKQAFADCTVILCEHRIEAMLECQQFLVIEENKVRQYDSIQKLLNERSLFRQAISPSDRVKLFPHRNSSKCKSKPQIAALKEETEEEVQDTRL

SMILES	EC50 [1] [µM]	EC50 [2] [µM]	Maximum % activity (with co-corrector)	Emax [%]
COc1cc2c(cc1CN[C@H]1[C@H](C(C)(C)C)[C@@H](C(=O)O)N(C(=O)C3CCCCC3)[C@H]1c1ccccc1)OCO2 [II-116]	1 to 10	1 to 10	+++ (≥350)	100 to 200
Cc1ccc(C)c(CN[C@H]2[C@H](C(C)(C)C)[C@@H](C(=O)O)N(C(=O)C3CCCCC3)[C@H]2c2ccccc2)c1 [II-117]	1 to 10	1 to 10	+++ (≥350)	< 100
COc1cc(F)ccc1CN[C@H]1[C@H](C(C)(C)C)[C@@H](C(=O)O)N(C(=O)C2CCCCC2)[C@H]1c1ccccc1 [II-118]	1 to 10	1 to 10	+++ (≥350)	100 to 200
CCOc1ccc(CN[C@H]2[C@H](C(C)(C)C)[C@@H](C(=O)O)N(C(=O)C3CCCCC3)[C@H]2c2ccccc2)c(C)c1 [II-119]	1 to 10	1 to 10	++ (≥150 and <350)	< 100
COc1ccc(C(F)(F)F)cc1CN[C@H]1[C@H](C(C)(C)C)[C@@H](C(=O)O)N(C(=O)[C@@H](C)OC)[C@H]1c1ccccc1 [II-120]	1 to 10	1 to 10	+++ (≥350)	100 to 200
CC(C)(C)c1cccc(CN[C@H]2[C@H](C(C)(C)C)[C@@H](C(=O)O)N(C(=O)C3CCCCC3)[C@H]2c2ccccc2)c1 [II-121]	1 to 10	1 to 10	++ (≥150 and <350)	< 100
CC(C)(C)[C@H]1[C@H](NCc2cccc(C(F)(F)F)c2)[C@H](c2ccccc2)N(C(=O)C2CCCCC2)[C@@H]1C(=O)O [II-122]	1 to 10	1 to 10	++ (≥150 and <350)	< 100
COc1cc(C)ccc1CN[C@H]1[C@H](C(C)(C)C)[C@@H](C(=O)O)N(C(=O)[C@@H]2CCCCO2)[C@H]1c1cccnc1OC [II-123]	1 to 10	1 to 10	++ (≥150 and <350)	< 100
COc1cc(C(C)(C)C)ccc1CN[C@H]1[C@H](C(C)(C)C)[C@@H](C(=O)O)N(C(=O)C2CCCCC2)[C@H]1c1ccccc1OC(F)F [II-124]	< 1	< 1	+++ (≥350)	100 to 200
COc1cc2c(cc1CN[C@H]1[C@H](C(C)(C)C)[C@@H](C(=O)O)N(C(=O)C3CCCCC3)[C@H]1c1ccccc1)CCCC2 [II-125]	1 to 10	< 1	+++ (≥350)	> 200
CCOc1ccc(Br)cc1CN[C@H]1[C@H](C(C)(C)C)[C@@H](C(=O)O)N(C(=O)C2CCCCC2)[C@H]1c1ccccc1 [II-126]	1 to 10	1 to 10	+++ (≥350)	100 to 200
COc1ccc(CN[C@H]2[C@H](C(C)(C)C)[C@@H](C(=O)O)N(C(=O)C3CCCCC3)[C@H]2c2ccccc2)cc1C(F)(F)F [II-127]	1 to 10	1 to 10	++ (≥150 and <350)	< 100
COc1cc(F)c(F)cc1CN[C@H]1[C@H](C(C)(C)C)[C@@H](C(=O)O)N(C(=O)C2CCCCC2)[C@H]1c1ccccc1 [II-128]	1 to 10	1 to 10	+++ (≥350)	100 to 200
CCOc1cc2c(cc1CN[C@H]1[C@H](C(C)(C)C)[C@@H](C(=O)O)N(C(=O)C3CCCCC3)[C@H]1c1ccccc1)CCC2 [II-129]	1 to 10	1 to 10	+++ (≥350)	100 to 200
CC(C)(C)[C@H]1[C@H](NCc2ccc(F)c(Oc3ccccc3)c2)[C@H](c2ccccc2)N(C(=O)C2CCCCC2)[C@@H]1C(=O)O [II-130]	1 to 10	1 to 10	++ (≥150 and <350)	< 100
Cc1ccc(CN[C@H]2[C@H](C(C)(C)C)[C@@H](C(=O)O)N(C(=O)C3CCCCC3)[C@H]2c2ccccc2)c(C)c1 [II-131]	1 to 10	1 to 10	++ (≥150 and <350)	100 to 200
Cc1cc(C)cc(CN[C@H]2[C@H](C(C)(C)C)[C@@H](C(=O)O)N(C(=O)C3CCCCC3)[C@H]2c2ccccc2)c1 [II-132]	1 to 10	1 to 10	+++ (≥350)	< 100
CC(C)(C)c1cc(CN[C@H]2[C@H](C(C)(C)C)[C@@H](C(=O)O)N(C(=O)C3CCCCC3)[C@H]2c2ccccc2)cc(C(C)(C)C)c1 [II-133]	1 to 10	1 to 10	++ (≥150 and <350)	< 100
COc1cc(C(F)(F)F)ccc1CN[C@H]1[C@H](C(C)(C)C)[C@@H](C(=O)O)N(C(=O)OC(C)C)[C@H]1c1ccccc1OC [II-134]	1 to 10	1 to 10	+++ (≥350)	> 200
COc1cc(C(C)(C)C)ccc1CN[C@H]1[C@H](C(C)(C)C)[C@@H](C(=O)O)N(C(=O)OC(C)C)[C@H]1c1ccccc1OC [II-135]	1 to 10	1 to 10	+++ (≥350)	100 to 200
COc1ccc(C(F)(F)F)cc1CN[C@H]1[C@H](C(C)(C)C)[C@@H](C(=O)O)N(C(=O)OC(C)C)[C@H]1c1ccccc1OC [II-136]	1 to 10	1 to 10	+++ (≥350)	100 to 200
COc1ccc(Cl)cc1CN[C@H]1[C@H](C(C)(C)C)[C@@H](C(=O)O)N(C(=O)OC(C)C)[C@H]1c1ccccc1OC [II-137]	1 to 10	1 to 10	+++ (≥350)	100 to 200
COc1cc(C)ccc1CN[C@H]1[C@H](C(C)(C)C)[C@@H](C(=O)O)N(C(=O)C2CCCCC2)[C@H]1c1cccnc1OC [II-138]	1 to 10	1 to 10	+++ (≥350)	100 to 200
CC(C)(C)[C@H]1[C@H](NCc2cc(Cl)ccc2OCC2CC2)[C@H](c2ccccc2)N(C(=O)C2CCCCC2)[C@@H]1C(=O)O [II-139]	1 to 10	1 to 10	++ (≥150 and <350)	< 100
COc1ccc(C(C)(C)C)cc1CN[C@H]1[C@H](C(C)(C)C)[C@@H](C(=O)O)N(C(=O)C2CCCCC2)[C@H]1c1ccccc1OC [II-140]	1 to 10	< 1	+++ (≥350)	100 to 200
COc1cc(C(C)(C)C)ccc1CN[C@H]1[C@H](C(C)(C)C)[C@@H](C(=O)O)N(C(=O)C2CCCCC2)[C@H]1c1ccccc1OC [II-141]	1 to 10	< 1	+++ (≥350)	100 to 200
Cc1c(N[C@H]2[C@H](C(C)(C)C)[C@@H](C(=O)O)N(C(=O)C3CCCCC3)[C@H]2c2ccccc2)c(Cl)nc2ccc(F)cc12 [II-144]	1 to 10	1 to 10	+++ (≥350)	100 to 200
CC(C)(C)[C@H]1[C@H](Nc2cc(C#N)cnc2Cl)[C@H](c2ccccc2)N(C(=O)C2CCCCC2)[C@@H]1C(=O)O [II-145]	1 to 10	1 to 10	+++ (≥350)	100 to 200
Cc1ccc(C#N)c(N[C@H]2[C@H](C(C)(C)C)[C@@H](C(=O)O)N(C(=O)C3CCCCC3)[C@H]2c2ccccc2)n1 [II-146]	1 to 10	1 to 10	+++ (≥350)	< 100
COCc1cc(C)nc(N[C@H]2[C@H](C(C)(C)C)[C@@H](C(=O)O)N(C(=O)C3CCCCC3)[C@H]2c2ccccc2)c1C#N [II-147]	1 to 10	1 to 10	++ (≥150 and <350)	< 100
